The results in this text go back to PubChem BioAssay AID1117354 (Cheminformatics & Chemogenomics Research Group (CCRG), …, 2015).

Each structure is given as a SMILES string. Activity calls are given as the source filed them. How the calls were made is not given here.

The inhibition is the drop in the measured response relative to a control, in per cent.

Tyrosine-protein kinase JAK2 (Homo sapiens), sequence (O60674 whole entry, looked up): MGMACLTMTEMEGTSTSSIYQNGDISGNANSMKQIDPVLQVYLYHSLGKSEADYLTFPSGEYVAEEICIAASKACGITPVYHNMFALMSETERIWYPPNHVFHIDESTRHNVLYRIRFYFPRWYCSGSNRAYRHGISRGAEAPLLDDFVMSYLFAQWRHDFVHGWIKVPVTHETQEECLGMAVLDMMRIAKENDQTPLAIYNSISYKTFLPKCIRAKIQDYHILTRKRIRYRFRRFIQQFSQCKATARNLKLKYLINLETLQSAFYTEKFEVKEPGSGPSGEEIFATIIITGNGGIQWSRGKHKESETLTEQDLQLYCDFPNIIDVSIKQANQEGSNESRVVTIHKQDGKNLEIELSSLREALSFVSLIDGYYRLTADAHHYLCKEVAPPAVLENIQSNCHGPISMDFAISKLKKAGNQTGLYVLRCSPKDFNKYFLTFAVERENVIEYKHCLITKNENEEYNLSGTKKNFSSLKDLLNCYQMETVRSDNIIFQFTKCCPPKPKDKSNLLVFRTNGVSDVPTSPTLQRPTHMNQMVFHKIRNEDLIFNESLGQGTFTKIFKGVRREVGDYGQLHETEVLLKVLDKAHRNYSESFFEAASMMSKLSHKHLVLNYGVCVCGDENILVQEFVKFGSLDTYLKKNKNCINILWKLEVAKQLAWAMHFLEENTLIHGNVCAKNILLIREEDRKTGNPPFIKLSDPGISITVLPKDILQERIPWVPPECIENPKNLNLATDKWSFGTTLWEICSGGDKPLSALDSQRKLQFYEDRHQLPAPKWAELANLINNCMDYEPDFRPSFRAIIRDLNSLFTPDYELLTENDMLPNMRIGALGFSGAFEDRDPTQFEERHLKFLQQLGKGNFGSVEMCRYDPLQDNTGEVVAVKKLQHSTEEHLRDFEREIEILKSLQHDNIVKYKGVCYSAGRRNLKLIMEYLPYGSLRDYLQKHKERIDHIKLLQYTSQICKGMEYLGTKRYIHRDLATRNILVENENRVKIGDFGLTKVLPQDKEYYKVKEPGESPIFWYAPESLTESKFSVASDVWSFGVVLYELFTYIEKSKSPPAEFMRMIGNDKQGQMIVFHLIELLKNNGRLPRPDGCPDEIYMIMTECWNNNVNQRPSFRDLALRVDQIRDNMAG

This test addresses Tyrosine-protein kinase JAK2 (Homo sapiens) (UniProt O60674). As to the kind of experiment: primary HTS for Janus kinase 2 inhibitors, biochemical, Homo sapiens, LANCE Ultra TR-FRET detection, NCGC Pharmaceutical Collection (AID 1117354). To be noted: LANCE Ultra TR-FRET kinase assay, at 20 µM (top of the series). (Time-resolved FRET reads energy transfer from a long-lived donor to a nearby acceptor.)
On to `Cc1ccc(Nc2nccc(N(C)c3ccc4c(C)n(C)nc4c3)n2)cc1S(N)(=O)=O`, for which the inhibition is 81.8%. To `COC(=O)Nc1nc2ccc(C(=O)c3cccs3)cc2[nH]1` belongs 12.9% (inactive); to `COc1cc2nc(N3CCN(C(=O)c4ccco4)CC3)nc(N)c2cc1OC`, -17.8% (inactive); to `CC(=O)[C@]1(O)Cc2c(O)c3c(c(O)c2[C@@H](O[C@H]2C[C@H](N)[C@H](O)[C@H](C)O2)C1)C(=O)c1ccccc1C3=O`, 29.1% (inactive). To `O=C(NOCC1CC1)c1ccc(F)c(F)c1Nc1ccc(I)cc1Cl` belongs 13.2% (inactive). With `CC(C)C[C@H](NC(=O)[C@H](CCc1ccccc1)NC(=O)CN1CCOCC1)C(=O)N[C@@H](Cc1ccccc1)C(=O)N[C@@H](CC(C)C)C(=O)[C@@]1(C)CO1` the figure was 5.34% (inactive); with `COC(=O)[C@H]1[C@H]2C[C@@H]3c4[nH]c5cc(OC)ccc5c4CCN3C[C@H]2C[C@@H](OC(=O)/C=C/c2ccc(O)c(OC)c2)[C@@H]1OC`, 9.23% (inactive).

On to `COc1ccc(-c2ccc3cc(C(=O)O)ccc3c2)cc1C12CC3CC(CC(C3)C1)C2`, for which the inhibition was 97.7%. Consider `CC(C)(C)C1CCC(CC2=C(O)c3ccccc3C(=O)C2=O)CC1` (configuration not stated), for which the inhibition was -11.2% (inactive).

Turning to `COC(=O)Nc1nc2ccc(Sc3ccccc3)cc2[nH]1`, the inhibition was -7.45% (inactive). With `COc1cccc2c1C(=O)c1c(O)c3c(c(O)c1C2=O)C[C@@](O)(C(C)=O)C[C@@H]3O[C@H]1C[C@H](N)[C@H](O)[C@H](C)O1` the figure was 7.94% (inactive).

Consider `CCCOc1ccc2nc(NC(=O)OC)[nH]c2c1`, for which the inhibition is -4.4% (inactive). With `Cc1cc(C)c(/C=C2\C(=O)Nc3ccccc32)[nH]1` the figure was 68.5%; with `C[n+]1c2cc(N)ccc2cc2ccc(N)cc21` (tested in a mixture with another compound), 8.06% (inactive); with `CCN(CC)CCNc1ccc(CO)c2sc3ccccc3c(=O)c12`, 33.1% (inactive). With `CCCCCCNC(=O)n1cc(F)c(=O)[nH]c1=O` the figure was -3.52% (inactive). To `Cc1nc(Nc2ncc(C(=O)Nc3c(C)cccc3Cl)s2)cc(N2CCN(CCO)CC2)n1` belongs 98.4%; to `C=C(C)[C@H]1Cc2c(ccc3c2O[C@@H]2COc4cc(OC)c(OC)cc4[C@@H]2C3=O)O1`, 4.93% (inactive). For `COC(=O)c1nc(Cl)c(Cl)nc1N`, the inhibition is -6.75% (inactive). With `COc1cc([C@@H]2c3cc4c(cc3[C@H](O)[C@H]3COC(=O)[C@H]23)OCO4)cc(OC)c1OC` the figure was 7.37% (inactive); with `CC[C@]1(O)C[C@@H]2CN(CCc3c([nH]c4ccccc34)[C@@](C(=O)OC)(c3cc4c(cc3OC)N(C)[C@H]3[C@@](O)(C(=O)OC)[C@H](OC(C)=O)[C@]5(CC)C=CCN6CC[C@]43[C@@H]65)C2)C1`, 5.49% (inactive); with `CCC(C)n1ncn(-c2ccc(N3CCN(c4ccc(OC[C@H]5CO[C@](Cn6cncn6)(c6ccc(Cl)cc6Cl)O5)cc4)CC3)cc2)c1=O` (some centres not stated), 10.5% (inactive). To `CN(C)c1ccc2nc3ccc(=[N+](C)C)cc-3sc2c1` belongs 13.3% (inactive); to `Nc1nc(=S)c2[nH]cnc2[nH]1`, 10.3% (inactive). Turning to `COC(=O)Nc1nc2ccc(C(=O)c3ccccc3)cc2[nH]1`, the inhibition is 25.8% (inactive). Take `[O-][n+]1ccccc1SSc1cccc[n+]1[O-]`: the inhibition is -17.3% (inactive). With `CCCCCCCCCCCCCCCC[n+]1ccccc1` the figure was 53.6%; with `CC[C@]1(O)C[C@H]2CN(CCc3c([nH]c4ccccc34)[C@@](C(=O)OC)(c3cc4c(cc3OC)N(C=O)[C@H]3[C@@](O)(C(=O)OC)[C@H](OC(C)=O)[C@]5(CC)C=CCN6CC[C@]43[C@@H]65)C2)C1`, 9% (inactive); with `COc1cc(NCc2ccc3nc(N)nc(N)c3c2C)cc(OC)c1OC`, 26.2% (inactive). To `COCc1c(C(C)C)nc(C(C)C)c(/C=C/[C@@H](O)C[C@@H](O)CC(=O)O)c1-c1ccc(F)cc1` belongs -8.56% (inactive); to `O=C(O)c1ccc(-n2nc(-c3ccccc3O)nc2-c2ccccc2O)cc1`, 44.5% (inactive); to `CCCCCCCCCCCCCCCCCCNC(=O)OC1CCN(C(=O)OC[C@H](COC(=O)N(Cc2cccc[n+]2CC)C(=O)c2ccccc2OC)OC)CC1`, -2.67% (inactive). With `Nc1ccc2cc3ccc(N)cc3nc2c1` the figure was -6.54% (inactive); with `CN1CC[C@H](c2c(O)cc(O)c3c(=O)cc(-c4ccccc4Cl)oc23)[C@H](O)C1`, 67.4%; with `CSc1ccc2c(c1)C(N1CCN(C)CC1)Cc1ccccc1S2` (configuration not stated), -4.22% (inactive).

Take `O=C(CCl)c1ccc(Cl)cc1Cl`: the inhibition was -17.1% (inactive). To `Cc1cc(C2CCCCC2)n(O)c(=O)c1` belongs -9.21% (inactive). With `COC(=O)Nc1nc2ccc(C(=O)C3CC3)cc2[nH]1` the figure was 21.4% (inactive).

In the case of `CCCCc1oc2ccccc2c1C(=O)c1cc(I)c(OCCN(CC)CC)c(I)c1`, the inhibition was 16.2% (inactive). As for `Cc1ccc2nc(N)[nH]c(=O)c2c1Sc1ccncc1`, the inhibition was 16.7% (inactive). With `C[C@@]12C(=O)OC(=O)[C@]1(C)C1CCC2O1`, the inhibition is -0.89% (inactive). To `CC(C)(C)C(=O)OCOP(=O)(COCCn1cnc2c(N)ncnc21)OCOC(=O)C(C)(C)C` belongs -9.81% (inactive). With `O=C(CCCCCCC(=O)Nc1ccccc1)NO` the figure was -17.1% (inactive); with `Cc1cc(=O)c2c(O)c3c(O)cc(=O)c4c3c3c(cc(O)c1c23)C(C)(C)C=4O`, 32.9% (inactive); with `CC(=O)Oc1ccc(C2(c3ccc(OC(C)=O)cc3)Oc3ccccc3NC2=O)cc1`, 7% (inactive).

For the molecule `CCC1=C[C@@H]2CN(C1)Cc1c([nH]c3ccccc13)[C@@](C(=O)OC)(c1cc3c(cc1OC)N(C)[C@H]1[C@@](O)(C(=O)OC)[C@H](OC(C)=O)[C@]4(CC)C=CCN5CC[C@]31[C@@H]54)C2`, the inhibition was 1.76% (inactive). To `Oc1c(Cl)cc(Cl)cc1Sc1cc(Cl)cc(Cl)c1O` belongs -0.83% (inactive). With `S=c1nc[nH]c2nc[nH]c12` the figure was 1.43% (inactive); with `Oc1c(Cl)cc(Cl)c2cccnc12`, -13.9% (inactive); with `Cc1cc2c(C(C)C)c(O)c(O)c(C=O)c2c(O)c1-c1c(C)cc2c(C(C)C)c(O)c(O)c(C=O)c2c1O`, -0.85% (inactive). To `Cc1nc2ccc(CN(C)c3ccc(C(=O)N[C@@H](CCC(=O)O)C(=O)O)s3)cc2c(=O)[nH]1` belongs 14.6% (inactive); to `CC[C@@]1(O)C(=O)OCc2c1cc1n(c2=O)Cc2c-1nc1ccccc1c2/C=N/OC(C)(C)C`, 12.1% (inactive); to `COc1ccc(-c2nc3ccc(C4=NNC(=O)CC4C)cc3[nH]2)cc1` (configuration not stated), -0.61% (inactive).

On to `CCCN(CCC)C(=O)C(CCC(=O)OCCCN1CCN(CCOC(=O)Cc2c(C)n(C(=O)c3ccc(Cl)cc3)c3ccc(OC)cc23)CC1)NC(=O)c1ccccc1` (configuration not stated), for which the inhibition was 12.5% (inactive). With `COc1cc(-c2ccc(=O)[nH]n2)ccc1OC(F)F` the figure was -10.1% (inactive). With `CCN(CC)CCOc1ccc(/C(=C(\Cl)c2ccccc2)c2ccccc2)cc1` the figure was -4.05% (inactive). With `CC(C)C[C@H](NC(=O)[C@H](Cc1ccccc1)NC(=O)c1cnccn1)B(O)O` the figure was -3.33% (inactive); with `CCCCCCCCCCCCCC[N+](C)(C)C`, -1.09% (inactive); with `NC(=NCCCCCCN=C(N)/N=C(\N)Nc1ccc(Cl)cc1)/N=C(\N)Nc1ccc(Cl)cc1`, 0.31% (inactive). As to `CNC(=O)c1cc(Oc2ccc(NC(=O)Nc3ccc(Cl)c(C(F)(F)F)c3)cc2)ccn1`, the inhibition was 63.2%. To `CCCCC1C(=O)N(c2ccccc2)N(c2ccc(O)cc2)C1=O` (configuration not stated) belongs -4.57% (inactive); to `CCc1nc(N)nc(N)c1-c1ccc(Cl)cc1`, -6.66% (inactive); to `COc1c(C)c2c(c(O)c1C/C=C(\C)CCC(=O)OCCN1CCOCC1)C(=O)OC2`, 8.22% (inactive). To `Cc1cc(O)c2ccccc2c1O` belongs 19.2% (inactive); to `O=C(Nc1ccc([N+](=O)[O-])cc1Cl)c1cc(Cl)ccc1O`, 16.5% (inactive); to `O=c1[nH]c(=O)n([C@H]2C[C@H](O)[C@@H](CO)O2)cc1C(F)(F)F`, 14.7% (inactive). Turning to `COc1ccc2cc1Oc1ccc(cc1)C[C@H]1c3c(cc4c(c3Oc3cc5c(cc3OC)CCN(C)[C@@H]5C2)OCO4)CCN1C`, the inhibition is 17.9% (inactive).

Take `CCCSc1ccc2nc(NC(=O)OC)[nH]c2c1`: the inhibition was -0.03% (inactive).

In the case of `Cc1ccccc1C(=O)Nc1ccc(C(=O)N2CCCC(N(C)C)c3ccccc32)cc1` (configuration not stated), the inhibition is 16% (inactive). With `C=CC(=O)Nc1cc2c(Nc3ccc(F)c(Cl)c3)ncnc2cc1OCCCN1CCOCC1` the figure was 68.2%; with `COc1cc2c(c(OC)c1OC)-c1ccc(OC)c(=O)cc1[C@@H](NC(C)=O)CC2`, -10.4% (inactive); with `CC[C@@H]([C@H](C)O)n1ncn(-c2ccc(N3CCN(c4ccc(OC[C@@H]5CO[C@@](Cn6cncn6)(c6ccc(F)cc6F)C5)cc4)CC3)cc2)c1=O`, 10.5% (inactive). With `Cn1cnc([N+](=O)[O-])c1Sc1ncnc2nc[nH]c12` the figure was -15.7% (inactive); with `CNC(=O)c1ccccc1Sc1ccc2c(/C=C/c3ccccn3)n[nH]c2c1`, 94.5%. To `Oc1c(I)cc(I)c2cccnc12` belongs -10.5% (inactive). With `COC(=O)Nc1nc2ccc(S(=O)c3ccccc3)cc2[nH]1` (configuration not stated), the inhibition is -7.42% (inactive).

In the case of `O=C1c2c(O)ccc(O)c2C(=O)c2c(NCCNCCO)ccc(NCCNCCO)c21`, the inhibition is 43.4% (inactive).
